Measured values as given in patent publication US20070191393A1, “Macrocyclic anilinopyrimidines with substituted sulphoximine as selective inhibitors of cell cycle kinases” (priority 2006, published 2007).

How the values were obtained:
Format in all cases: biochemical
KDR = biological target: T1, KDR (Homo sapiens, UniProt P35968); experiment: KDR kinase assay; settings: 1 μM ATP, 22° C., 20 min
T1 construct: made in house; host or cells: SF9 insect cells
Description: Recombinant GST-KDR protein was expressed in SF9 insect cells and then purified. The kinase substrate used was the biotinylated peptide biotin-polyGluAlaTyr from Cisbio International.
GST-KDR [test volume 15 μl] was incubated in the presence of various concentrations of test substances (0 μM, and 10 measurement points within the range 0.001-20 μM in duplicate) in assay buffer [50 mM HEPES pH 7.0, 25 mM MgCl2, 5 mM MgCl2, 0.5 mM Na ortho-vanadate, 1 mM dithiothreitol, 10% glycerol, 1 μM ATP, 23.5 mg/L substrate peptide biotin-polyGluAlaTyr, 1% dimethyl sulphoxide, 1× protease inhibitor mix (from Roche)] at 22° C. for 20 min. The reaction was stopped by adding 5 μl of an EDTA/detection solution [50 mM HEPES pH 7.0, 250 mM EDTA, 0.5% BSA, 22 mg/L streptavidin-XL (from CisBio), 1 mg/L PT66-Eu (from PerkinElmer)]. The fluorescence emission at 620 nm and 665 nm after excitation with light of the wavelength 350 nm was measured in a Rubystar HTRF instrument from BMG Labsystems 60 minutes after addition of the EDTA/detection solution.
The measured data (ratio of emission 665 divided by emission 620 multiplied by 10 000) were normalized to 0% inhibition (enzyme reaction without inhibitor) and 100% inhibition (all assay components apart from enzyme). The IC50 values were determined by means of a 4-parameter fit using the company's own software.

Aurora-A = biological target: T2, Aurora-A (Homo sapiens, UniProt O14965); experiment: Aurora-A kinase assay; settings: 8 μM ATP, 22° C., 90 min
T2 construct: purchased Upstate; host or cells: Sf21 insect cells
T2 sequence (O14965 1-403): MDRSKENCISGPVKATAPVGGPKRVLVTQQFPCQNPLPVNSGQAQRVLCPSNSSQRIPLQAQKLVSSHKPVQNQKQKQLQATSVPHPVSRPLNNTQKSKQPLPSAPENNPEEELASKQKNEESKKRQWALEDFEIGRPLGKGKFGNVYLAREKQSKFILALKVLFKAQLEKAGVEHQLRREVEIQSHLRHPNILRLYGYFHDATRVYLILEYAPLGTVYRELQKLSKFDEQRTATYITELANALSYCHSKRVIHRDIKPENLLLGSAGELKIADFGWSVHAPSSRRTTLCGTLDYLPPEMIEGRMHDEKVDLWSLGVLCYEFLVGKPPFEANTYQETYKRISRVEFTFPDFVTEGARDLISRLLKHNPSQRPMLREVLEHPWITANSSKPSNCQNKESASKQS
Description: Recombinant Aurora-A protein, expressed in Sf21 insect cells, was purchased from Upstate. The kinase substrate used was the biotinylated peptide having the amino acid sequence biotin-LNYNRRLSLGPMF, which was purchased from Jerini A G in Berlin.
Aurora-A [15 nM in the test mixture, test volume 5 μl] was incubated in the presence of various concentrations of test substances (0 μM and 10 measurement points within the range 0.001-20 μM in duplicate) in assay buffer [25 mM HEPES pH 7.4, 3 mM MnCl2, 5 mM MnCl2, 0.1 mM Na ortho-vanadate, 2.0 mM dithiothreitol, 0.05% bovine serum albumin (BSA), 0.01% Triton X-100, 8 μM ATP, 4 nCi/μl gama-P33-ATP, 5.0 μM substrate peptide biotin-LNYNRRLSLGPMF, 1.0% dimethyl sulphoxide] at 22° C. for 90 min. The reaction was stopped by adding 12.5 μl of an EDTA/detection solution [16 mM EDTA, 40 mM ATP, 0.08% Triton X-100, 4 mg/ml PVT streptavidin SPA beads (from Amersham)]. After incubation for 10 minutes, the SPA beads were pelleted by centrifugation at 1000×G for 10 minutes. Measurement took place in a PerkinElmer Topcount scintillation counter.
The measured data were normalized to 0% inhibition (enzyme reaction without inhibitor) and 100% inhibition (enzyme reaction in the presence of 0.1 μM staurosporine (from Sigma)). The IC50 values were determined by means of a 4-parameter fit using the company's own software.

c-kit = biological target: T3, c-kit (Homo sapiens, UniProt P10721); experiment: c-Kit kinase assay; settings: 10 μM ATP, 22° C., 30 min
T3 construct: made in house; host or cells: E. coli
T3 sequence (P10721 26-976): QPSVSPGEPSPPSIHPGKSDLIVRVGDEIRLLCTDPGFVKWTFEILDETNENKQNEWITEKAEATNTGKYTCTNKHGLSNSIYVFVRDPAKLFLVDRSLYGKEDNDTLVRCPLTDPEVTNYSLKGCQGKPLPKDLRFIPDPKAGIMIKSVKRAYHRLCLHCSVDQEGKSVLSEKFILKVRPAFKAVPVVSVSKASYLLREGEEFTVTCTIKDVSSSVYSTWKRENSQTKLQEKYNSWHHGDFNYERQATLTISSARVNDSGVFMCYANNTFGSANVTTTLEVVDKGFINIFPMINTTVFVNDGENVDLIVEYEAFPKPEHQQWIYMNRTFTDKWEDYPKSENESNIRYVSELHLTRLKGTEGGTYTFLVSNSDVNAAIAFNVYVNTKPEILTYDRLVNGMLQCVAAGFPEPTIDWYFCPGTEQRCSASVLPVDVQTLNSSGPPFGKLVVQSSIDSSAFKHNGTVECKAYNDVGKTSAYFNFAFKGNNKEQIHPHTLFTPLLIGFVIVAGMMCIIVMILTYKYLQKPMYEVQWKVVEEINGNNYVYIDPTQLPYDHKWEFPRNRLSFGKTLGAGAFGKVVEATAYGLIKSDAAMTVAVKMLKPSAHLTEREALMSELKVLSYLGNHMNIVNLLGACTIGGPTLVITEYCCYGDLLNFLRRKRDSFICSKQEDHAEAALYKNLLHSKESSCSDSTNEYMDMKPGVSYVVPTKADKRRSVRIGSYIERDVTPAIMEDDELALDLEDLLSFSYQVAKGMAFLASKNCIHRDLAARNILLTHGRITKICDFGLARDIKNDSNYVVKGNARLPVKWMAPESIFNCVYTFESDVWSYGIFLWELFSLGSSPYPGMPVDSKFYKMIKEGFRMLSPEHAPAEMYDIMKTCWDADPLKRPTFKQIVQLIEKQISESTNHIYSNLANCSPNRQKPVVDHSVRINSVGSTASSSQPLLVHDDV
Description: Recombinant c-kit protein was expressed in E. coli and then purified. The kinase substrate used was the biotinylated peptide having the amino acid sequence biotin-poly GluTyr, which was purchased from CisBio.
C-kit [test volume 5 μl] was incubated in the presence of various concentrations of test substances (0 μM, and 10 measurement points within the range 0.001-20 μM in duplicate) in assay buffer [50 mM HEPES pH 7.0, 1.0 mM MgCl2, […], 0.1 mM Na ortho-vanadate, 1.0 mM dithiothreitol, 0.001% NP40, 10 μM ATP, 0.03 μM substrate peptide biotin-poly GluTyr, 1.0% dimethyl sulphoxide] at 22° C. for 30 min. The reaction was stopped by adding 5 μl of an EDTA/detection solution [50 mM HEPES pH 7.5, 80 mM EDTA, 0.2% BSA, 0.1 μM streptavidin-XLent (from CisBio), 1 nM PT66-Eu (from PerkinElmer)]. The fluorescence emission at 620 nm and 665 nm after excitation with light of the wavelength 350 nm was measured in a Rubystar HTRF instrument from BMG Labsystems. The measured data (ratio of emission 665 divided by emission 620 multiplied by 10 000) were normalized to 0% inhibition (enzyme reaction without inhibitor) and 100% inhibition (all assay components apart from enzyme). The IC50 values were determined by means of a 4-parameter fit using the company's own software.

T1 sequence (P35968 20-1356, species assumed): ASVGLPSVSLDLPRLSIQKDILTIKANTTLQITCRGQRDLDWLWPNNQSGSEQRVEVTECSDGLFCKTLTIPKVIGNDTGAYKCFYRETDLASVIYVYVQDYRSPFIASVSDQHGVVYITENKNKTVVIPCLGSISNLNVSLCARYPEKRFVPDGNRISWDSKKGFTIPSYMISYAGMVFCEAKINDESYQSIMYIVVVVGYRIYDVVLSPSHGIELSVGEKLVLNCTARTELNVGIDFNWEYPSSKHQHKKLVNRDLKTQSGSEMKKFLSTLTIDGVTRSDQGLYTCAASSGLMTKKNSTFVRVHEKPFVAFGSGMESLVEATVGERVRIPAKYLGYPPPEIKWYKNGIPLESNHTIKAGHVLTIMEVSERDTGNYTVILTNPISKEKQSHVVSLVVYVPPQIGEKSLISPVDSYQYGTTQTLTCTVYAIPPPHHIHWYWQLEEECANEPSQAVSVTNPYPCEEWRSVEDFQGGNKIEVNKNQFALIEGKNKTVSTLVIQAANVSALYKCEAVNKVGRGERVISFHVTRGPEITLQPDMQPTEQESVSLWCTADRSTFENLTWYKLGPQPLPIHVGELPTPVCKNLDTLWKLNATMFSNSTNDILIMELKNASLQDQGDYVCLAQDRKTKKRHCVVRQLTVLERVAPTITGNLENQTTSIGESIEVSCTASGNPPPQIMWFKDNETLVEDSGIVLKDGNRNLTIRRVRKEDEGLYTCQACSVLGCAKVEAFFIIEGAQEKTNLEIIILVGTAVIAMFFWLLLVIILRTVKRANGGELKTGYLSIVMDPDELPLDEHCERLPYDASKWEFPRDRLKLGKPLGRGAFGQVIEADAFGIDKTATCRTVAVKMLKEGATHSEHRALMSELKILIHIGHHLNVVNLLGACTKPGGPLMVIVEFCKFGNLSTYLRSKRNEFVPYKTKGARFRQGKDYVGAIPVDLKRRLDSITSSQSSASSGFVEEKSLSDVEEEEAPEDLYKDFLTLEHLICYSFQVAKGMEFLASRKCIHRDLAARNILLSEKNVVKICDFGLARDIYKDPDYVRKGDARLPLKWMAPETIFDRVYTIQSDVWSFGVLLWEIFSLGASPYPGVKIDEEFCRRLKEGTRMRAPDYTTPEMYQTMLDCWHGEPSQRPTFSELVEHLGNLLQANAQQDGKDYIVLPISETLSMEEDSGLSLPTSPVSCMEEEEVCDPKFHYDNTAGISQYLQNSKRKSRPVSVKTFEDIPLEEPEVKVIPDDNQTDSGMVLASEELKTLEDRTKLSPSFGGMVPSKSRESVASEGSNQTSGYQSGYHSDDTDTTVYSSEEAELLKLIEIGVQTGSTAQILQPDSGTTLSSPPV

IC50 (KDR) | IC50 (Aurora-A) | IC50 (c-kit) | Compound
0.061 µM | 0.027 µM | 0.029 µM | CCOC(=O)N=S(C)(=O)c1ccc2cc1NCCCCNc1nc(ncc1Br)N2 (racemic) [Example 1, (RS)—S-[1^5-Bromo-2,4,9-triaza-1(2,4)-pyrimidina-3(1,3)-benzenacyclononaphan-3^4-yl]-N-(ethoxycarbonyl)-S-methylsulphoximide]
0.009 µM | 0.031 µM | 0.023 µM | CCOC(=O)N=S(C)(=O)c1ccc2cc1NCCCCNc1nc(ncc1I)N2 (racemic) [Example 4, (RS)—N-(Ethoxycarbonyl)-S-[1^5-iodo-2,4,9-triaza-1(2,4)-pyrimidina-3(1,3)-benzenacyclononaphan-3^4-yl]-S-methylsulphoximide]
0.022 µM | 0.844 µM | 0.164 µM | C[Si](C)(C)CCS(=O)(=O)N=S(C)(=O)c1ccc2cc1NCCCCNc1nc(ncc1Br)N2 (racemic) [Example 5, (RS)—S-[1^5-Bromo-2,4,9-triaza-1(2,4)-pyrimidina-3(1,3)-benzenacyclononaphan-3^4-yl]-S-methyl-N-[2-(trimethylsilyl)ethylsulphonyl]sulphoximide]
0.022 µM | 0.021 µM | 0.014 µM | CCNC(=O)N=S(C)(=O)c1ccc2cc1NCCCCNc1nc(ncc1Br)N2 (racemic) [Example 6, (RS)—S-[1^5-Bromo-2,4,9-triaza-1(2,4)-pyrimidina-3(1,3)-benzenacyclononaphan-3^4-yl]-N-(ethylcarbamoyl)-S-methylsulphoximide]
0.007 µM | 0.044 µM | 0.017 µM | CCCS(=O)(=O)N=S(C)(=O)c1ccc2cc1NCCCCNc1nc(ncc1Br)N2 (racemic) [Example 7, (RS)—S-[1^5-Bromo-2,4,9-triaza-1(2,4)-pyrimidina-3(1,3)-benzenacyclononaphan-3^4-yl]-S-methyl-N-(propylsulphonyl)sulphoximide]
0.136 µM | – | 0.357 µM | CCCOC(=O)N=S(C)(=O)c1ccc2cc1OCCCCNc1nc(ncc1Br)N2 (racemic) [Example 8, (RS)—S-[1^5-Bromo-4-oxa-2,9-diaza-1(2,4)-pyrimidina-3(1,3)-benzenacyclononaphan-3^4-yl]-S-methyl-N-(propoxycarbonyl)sulphoximide]
0.06 µM | 0.652 µM | > 12.5 µM | C[Si](C)(C)CCS(=O)(=O)N=S(C)(=O)c1ccc2cc1OCCCCNc1nc(ncc1Br)N2 (racemic) [Example 9, (RS)—S-[1^5-Bromo-4-oxa-2,9-diaza-1(2,4)-pyrimidina-3(1,3)-benzenacyclononaphan-3^4-yl]-S-methyl-N-[2-(trimethylsilyl)ethylsulphonyl]sulphoximide]
0.198 µM | 0.026 µM | 0.046 µM | CCOC(=O)N=S(C)(=O)c1ccc2cc1NCCCCNc1nc(ncc1Br)N2 (single isomer, unassigned) [Example 2]
0.289 µM | 0.077 µM | 0.064 µM | CCOC(=O)N=S(C)(=O)c1ccc2cc1NCCCCNc1nc(ncc1Br)N2 (single isomer, unassigned) [Example 3]
